# Laboratory results published in patent US8192962B2, “Processes for detecting toxic substances” (Daikin Industries, Ltd., priority 2001, dated 2012).
# Tested on: Transport facilitation protein genes
# Assay: DNA chip mRNA expression in yeast, transport facilitation protein genes (Table 5)
# Format: cell-based, Saccharomyces cerevisiae S288C
# Summary of the method: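 Values are treated/untreated fluorescence ratios from a whole-genome yeast DNA chip hybridized over 12 hours at 65° C with Cy3- or Cy5-labelled cDNA from poly(A) mRNA. Log-phase S288C yeast in YPD at 25° C had received a single toxic chemical for two hours, dosed to slow growth without killing.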
smiles,measurement,setting,value
"[Cl][Hg][Cl] [(3), HgCl2]",The level of expressed mRNA in the presence of chemical substance/The level of expressed mRNA in the absence of chemical substance,yeast gene YGR224W,1.2
same,The level of expressed mRNA in the presence of chemical substance/The level of expressed mRNA in the absence of chemical substance,yeast gene YGR260W,3.4
same,The level of expressed mRNA in the presence of chemical substance/The level of expressed mRNA in the absence of chemical substance,yeast gene YGR281W,1.3
same,The level of expressed mRNA in the presence of chemical substance/The level of expressed mRNA in the absence of chemical substance,yeast gene YHL035C,0.9
same,The level of expressed mRNA in the presence of chemical substance/The level of expressed mRNA in the absence of chemical substance,yeast gene YHL040C,1.5
same,The level of expressed mRNA in the presence of chemical substance/The level of expressed mRNA in the absence of chemical substance,yeast gene YHL047C,1.0
same,The level of expressed mRNA in the presence of chemical substance/The level of expressed mRNA in the absence of chemical substance,yeast gene YHR026W,1.9
same,The level of expressed mRNA in the presence of chemical substance/The level of expressed mRNA in the absence of chemical substance,yeast gene YHR092C,7.5
same,The level of expressed mRNA in the presence of chemical substance/The level of expressed mRNA in the absence of chemical substance,yeast gene YHR094C,5.3
same,The level of expressed mRNA in the presence of chemical substance/The level of expressed mRNA in the absence of chemical substance,yeast gene YHR175W,2.4
same,The level of expressed mRNA in the presence of chemical substance/The level of expressed mRNA in the absence of chemical substance,yeast gene YIL006W,1.4
same,The level of expressed mRNA in the presence of chemical substance/The level of expressed mRNA in the absence of chemical substance,yeast gene YIL022W,1.1
same,The level of expressed mRNA in the presence of chemical substance/The level of expressed mRNA in the absence of chemical substance,yeast gene YIL056W,6.2
same,The level of expressed mRNA in the presence of chemical substance/The level of expressed mRNA in the absence of chemical substance,yeast gene YIL088C,2.1
same,The level of expressed mRNA in the presence of chemical substance/The level of expressed mRNA in the absence of chemical substance,yeast gene YJL034W,3.0
same,The level of expressed mRNA in the presence of chemical substance/The level of expressed mRNA in the absence of chemical substance,yeast gene YJL212C,3.1
same,The level of expressed mRNA in the presence of chemical substance/The level of expressed mRNA in the absence of chemical substance,yeast gene YJL219W,3.1
same,The level of expressed mRNA in the presence of chemical substance/The level of expressed mRNA in the absence of chemical substance,yeast gene YJR077C,2.0
same,The level of expressed mRNA in the presence of chemical substance/The level of expressed mRNA in the absence of chemical substance,yeast gene YJR106W,1.5
same,The level of expressed mRNA in the presence of chemical substance/The level of expressed mRNA in the absence of chemical substance,yeast gene YJR121W,3.3
same,The level of expressed mRNA in the presence of chemical substance/The level of expressed mRNA in the absence of chemical substance,yeast gene YKL016C,0.7
same,The level of expressed mRNA in the presence of chemical substance/The level of expressed mRNA in the absence of chemical substance,yeast gene YKL146W,1.3
same,The level of expressed mRNA in the presence of chemical substance/The level of expressed mRNA in the absence of chemical substance,yeast gene YKR039W,1.3
same,The level of expressed mRNA in the presence of chemical substance/The level of expressed mRNA in the absence of chemical substance,yeast gene YKR067W,1.5
same,The level of expressed mRNA in the presence of chemical substance/The level of expressed mRNA in the absence of chemical substance,yeast gene YLL028W,4.6
same,The level of expressed mRNA in the presence of chemical substance/The level of expressed mRNA in the absence of chemical substance,yeast gene YLR081W,2.8
same,The level of expressed mRNA in the presence of chemical substance/The level of expressed mRNA in the absence of chemical substance,yeast gene YLR295C,1.1
same,The level of expressed mRNA in the presence of chemical substance/The level of expressed mRNA in the absence of chemical substance,yeast gene YLR348C,1.2
same,The level of expressed mRNA in the presence of chemical substance/The level of expressed mRNA in the absence of chemical substance,yeast gene YLR378C,2.6
same,The level of expressed mRNA in the presence of chemical substance/The level of expressed mRNA in the absence of chemical substance,yeast gene YMR011W,9.4
same,The level of expressed mRNA in the presence of chemical substance/The level of expressed mRNA in the absence of chemical substance,yeast gene YMR162C,1.1
same,The level of expressed mRNA in the presence of chemical substance/The level of expressed mRNA in the absence of chemical substance,yeast gene YMR203W,3.0
same,The level of expressed mRNA in the presence of chemical substance/The level of expressed mRNA in the absence of chemical substance,yeast gene YNL055C,5.5
same,The level of expressed mRNA in the presence of chemical substance/The level of expressed mRNA in the absence of chemical substance,yeast gene YNL259C,1.1
same,The level of expressed mRNA in the presence of chemical substance/The level of expressed mRNA in the absence of chemical substance,yeast gene YNR072W,0.5
same,The level of expressed mRNA in the presence of chemical substance/The level of expressed mRNA in the absence of chemical substance,yeast gene YOL119C,1.5
same,The level of expressed mRNA in the presence of chemical substance/The level of expressed mRNA in the absence of chemical substance,yeast gene YOL156W,2.5
same,The level of expressed mRNA in the presence of chemical substance/The level of expressed mRNA in the absence of chemical substance,yeast gene YOL163W,2.1
same,The level of expressed mRNA in the presence of chemical substance/The level of expressed mRNA in the absence of chemical substance,yeast gene YOR035C,0.3
same,The level of expressed mRNA in the presence of chemical substance/The level of expressed mRNA in the absence of chemical substance,yeast gene YOR130C,1.4
same,The level of expressed mRNA in the presence of chemical substance/The level of expressed mRNA in the absence of chemical substance,yeast gene YOR153W,5.1
same,The level of expressed mRNA in the presence of chemical substance/The level of expressed mRNA in the absence of chemical substance,yeast gene YOR273C,1.7
same,The level of expressed mRNA in the presence of chemical substance/The level of expressed mRNA in the absence of chemical substance,yeast gene YOR316C,1.5
same,The level of expressed mRNA in the presence of chemical substance/The level of expressed mRNA in the absence of chemical substance,yeast gene YOR332W,1.0
same,The level of expressed mRNA in the presence of chemical substance/The level of expressed mRNA in the absence of chemical substance,yeast gene YOR348C,1.2
same,The level of expressed mRNA in the presence of chemical substance/The level of expressed mRNA in the absence of chemical substance,yeast gene YPL036W,2.8
same,The level of expressed mRNA in the presence of chemical substance/The level of expressed mRNA in the absence of chemical substance,yeast gene YPL134C,1.6
same,The level of expressed mRNA in the presence of chemical substance/The level of expressed mRNA in the absence of chemical substance,yeast gene YPL271W,4.1
same,The level of expressed mRNA in the presence of chemical substance/The level of expressed mRNA in the absence of chemical substance,yeast gene YPR192W,0.9
same,The level of expressed mRNA in the presence of chemical substance/The level of expressed mRNA in the absence of chemical substance,yeast gene YPR194C,0.5
